# PubChem BioAssay (NCI)
# Where “and” joins values, the source holds several entries; their conditions need not be identical. Equal values may be shown once.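 Results reflect a 48-hour exposure of cells in 96-well plates to compound at five concentrations. GI50: concentration for 50% inhibition of growth. TGI marks complete inhibition of growth.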
# Assays:
# Experiment in all cases: inhibition of tumour cell growth, NCI panel, 48 h
# [1] = tested on: MDA-MB-231 breast
# [2] = tested on: MDA-MB-435
# [3] = tested on: HCT-116 colon
# [4] = tested on: CAKI-1 renal
# [5] = tested on: HL-60(TB) leukemia
# [6] = tested on: SR leukemia
# [7] = tested on: HCC-2998 colon
# [8] = tested on: MALME-3M melanoma
# [9] = tested on: SK-MEL-28 melanoma
# [10] = tested on: NCI-H522 lung
SMILES,TGI [1],TGI [2],TGI [3],TGI [4],TGI [5],TGI [6] [µM],TGI [7],TGI [8],TGI [9],GI50 [1] [µM],GI50 [2] [µM],GI50 [3],GI50 [4] [µM],GI50 [5],GI50 [8],GI50 [9],TGI [10],GI50 [6] [µM],GI50 [7] [µM],GI50 [10]
c1ccc(CN2CCC3(CC2)SSC2(CCN(Cc4ccccc4)CC2)S3)cc1,> 100 µM,> 100 µM,> 100 µM,85.5 µM,> 100 µM,> 100,93.6 µM,> 100 µM,> 100 µM,–,–,–,–,–,–,–,–,–,–,–
N#CCCN(CCCN(CCCN(C(=O)Nc1ccccc1)c1ccccc1)C(=O)Nc1ccccc1)C(=O)Nc1ccccc1,> 100 µM,> 100 µM,> 100 µM,> 100 µM,> 8.75 µM and 15.6 µM,> 8.75,> 100 µM,> 8.75 µM and 67.2 µM,> 100 µM,> 100,34.9,> 100 µM,> 100,5.2 µM,16 µM,> 100 µM,–,–,–,–
Cc1ccc([N+](=O)[O-])cc1NC(=O)/C(=N/NC(=S)NN)C1SC(=S)NC1=O (stereo not given),–,–,> 100 µM,> 100 µM,> 100 µM,> 100,–,> 100 µM,> 100 µM,–,–,–,–,–,–,–,> 100 µM,–,–,–
COc1cc([C@@H]2c3cc4c(cc3[C@@H](OC(=O)c3ccc(N)cc3)C3COC(=O)[C@@H]32)OCO4)cc(OC)c1O (stereo not given in full),–,–,> 95 µM,> 95 µM,22.2 µM,–,36.3 µM,63.5 µM,> 95 µM,–,–,–,–,–,–,–,5.35 µM,–,–,–
O=C(CC(=O)C1=CNc2ccccc2S1)C(=O)Nc1ccc(Cl)cc1,–,–,> 50 µM,> 50 µM,49.6 µM,–,> 50 µM,> 50 µM,> 50 µM,–,–,–,–,–,–,–,> 50 µM,–,–,–
C1=CC=C2NCCCCCCCNC3=CC=CC=CC3=NCCCCCCCN=C2C=C1,–,–,> 100 µM,> 100 µM,> 100 µM,> 100,> 100 µM,> 100 µM,–,–,–,–,–,–,–,–,> 100 µM,–,–,–
COC1OC(CBr)C(OC(=O)c2ccccc2)C(O)C1Br (stereo not given),–,–,> 100 µM,> 100 µM,> 100 µM,> 100,> 100 µM,> 100 µM,> 100 µM,–,–,–,–,–,–,–,> 100 µM,–,–,–
COC1/C=C/C(C)C(C(C)C(OC)C(C)CCC(=O)C(C)C(C/C=C/N(C)C=O)OC)OC(=O)/C=C/C=C(\C)CC(OC)CC2=CC(=O)O[C@H](C2)C(C)C(OC)CC(OC)/C=C/C(C)C(OC)C1 (stereo not given in full),0.0584 µM,0.472 µM and 0.311 µM,0.115 µM and 0.0148 µM,0.0308 µM and 0.0117 µM,–,–,–,0.0582 µM and 0.0315 µM,0.298 µM and 0.0326 µM,0.0114,0.0303,0.0066 µM,0.00682,–,0.0213 µM,0.0413 µM,–,0.00311,0.0046,–
C[C@]12CCC(=O)C=C1CC[C@@H]1C2CC[C@]2(C)Nc3c(cnn3-c3ccccc3)CC12 (stereo not given in full),–,–,> 100 µM,> 100 µM,> 100 µM,–,> 100 µM,> 100 µM,> 100 µM,–,–,–,–,–,–,–,–,–,–,–
O=C(O/C(=C(/N=Nc1ccccc1)c1ccccc1)c1ccccc1)c1ccccc1,–,–,> 100 µM,> 100 µM,–,> 100,> 100 µM,> 100 µM,> 100 µM,–,–,–,–,–,–,–,> 100 µM,–,–,–
c1csc(-c2cn3nc(-c4c[nH]c5ccccc45)sc3n2)c1,7.88 µM,0.685 µM,70.6 µM,> 100 µM,20.9 µM,–,26.7 µM,36.9 µM,44 µM,1.08,0.225,0.627 µM,0.997,0.76 µM,10.4 µM,4.74 µM,> 100 µM,–,2.99,0.754 µM
O=C(NC(=O)c1cn(CCN(CCO)C(=O)NCCCCCCNC(=O)N(CCO)CCn2cc(C(=O)NC(=O)OCc3ccccc3)c(=O)[nH]c2=O)c(=O)[nH]c1=O)OCc1ccccc1,–,–,> 100 µM,> 100 µM,> 100 µM,–,–,> 100 µM,> 100 µM,–,–,–,–,–,–,–,–,–,–,–
COc1ccc2c(c1)[n+]([O-])c(-c1ccc(OC)c(OC)c1)c(N)[n+]2[O-],–,–,–,72.2 µM,> 100 µM,–,> 100 µM,> 100 µM,69.4 µM,–,–,–,–,–,–,–,31.5 µM,–,–,–
O=C1C2C3C=C4c5ccccc5N(c5ccccc5)C4(C2C(=O)N1c1ccc(Cl)cc1)[C@H]1C(=O)N(c2ccc(Cl)cc2)C(=O)[C@@H]31 (stereo not given in full),–,–,> 100 µM,76.3 µM,> 100 µM,> 100,–,> 100 µM,–,–,–,–,–,–,–,–,> 100 µM,–,–,–
C#CC1(O)C(COP(=O)(O)OC(COCCCCCCCCCCCCCCCCCC)COP(=O)(O)OCC2OC(n3cc(F)c(=O)[nH]c3=O)CC2O)OC(n2ccc(N)nc2=O)C1O (stereo not given),26.7 µM and 31.1 µM,3.08 µM and 5.9 µM,> 100 µM,6.72 µM,17.9 µM and 11.7 µM,–,> 28.4 µM,21.8 µM and 3.51 µM,21.8 µM and 28.8 µM,–,–,< 0.024 µM and 0.142 µM,–,0.0952 µM and 0.21 µM,0.742 µM and 0.202 µM,0.618 µM and 1.49 µM,0.223 µM and 1.52 µM,–,–,< 0.0377 µM and 0.0758 µM
O=C(Cn1c(=O)c(-c2ccccc2)nc2ccccc21)Nc1ccc(F)cc1,> 100 µM,> 100 µM,> 100 µM,> 100 µM,48 µM,–,> 100 µM,> 100 µM,> 100 µM,99.7,> 100,24 µM,> 100,14.1 µM,43 µM,> 100 µM,> 100 µM,–,> 100,65.1 µM
COc1ccc(/C=C/C(=O)c2ccc(O)c(CN3CCN(c4cc5c(cc4F)c(=O)c(C(=O)O)cn5C4CC4)CC3)c2)cc1,13 µM,> 100 µM,> 100 µM,> 100 µM,–,14.9,> 100 µM,16.4 µM,> 100 µM,2.19,2.17,0.368 µM,2.35,–,1.59 µM,1.72 µM,28.7 µM,0.354,4.15,1.98 µM
COc1cc(NC(C)CCCN)c2ncccc2c1 (stereo not given),> 100 µM,> 100 µM,> 100 µM,> 100 µM,> 37.3 µM and 28.9 µM,–,31.6 µM and 58.5 µM,35.7 µM and 60.9 µM,47.5 µM and > 100 µM,–,–,34.6 µM and 75.8 µM,–,–,19.3 µM and 44.4 µM,22.1 µM and 74 µM,> 100 µM,–,–,–
